Reference: patent US11014920B2, “Factor XIIa inhibitors” (Merck Sharp & Dohme Corp., priority 2016, dated 2021)

What follows are compounds tested against purified human Factor XIIa (Homo sapiens (Human), UniProt P00748) (assay: Factor XIIa assay). Details: substrate n-Acetyl-Lys-Pro-Arg-AFC 100 μM, pH 7.4, read-out: FXIIa IC50.
Format: biochemical
Procedure: “FXIIa IC50(nm)” is Human Factor XIIa IC50 (nm).
The effectiveness of a compound of the present invention as an inhibitor of Coagulation Factor XIIa can be determined using a relevant purified serine protease, and an appropriate synthetic substrate. The rate of hydrolysis of the chromogenic or fluorogenic substrate by the relevant serine protease was measured both in the absence and presence of compounds of the present invention. Assays were conducted at room temperature or at 37° C. […] A decrease in the rate of fluorescence change in the presence of inhibitor is indicative of enzyme inhibition. Such methods are known to one skilled in the art. The results of this assay are expressed as the IC50, the inhibitor concentration causing a 50% decrease in Factor XIIa protease activity.
Factor XIIa activity determinations were made in 50 mM HEPES buffer containing 150 mM NaCl, 5 mM CaCl2, and 0.1% PEG 8000 (polyethylene glycol; JT Baker or Fisher Scientific) at pH 7.4. Determinations were made using purified human Factor XIIa at a final concentration of […] (Sekisui Diagnostics) and the synthetic substrate, n-Acetyl-Lys-Pro-Arg-AFC, TFA salt (Sigma # C6608) at a concentration of 100 μM.
Times required to achieve equilibration between enzyme and inhibitor were determined in control experiments. Initial velocities of product formation in the absence (Vo) or presence of inhibitor (Vi) were measured.

purified human Factor XIIa, sequence (P00748 373-615): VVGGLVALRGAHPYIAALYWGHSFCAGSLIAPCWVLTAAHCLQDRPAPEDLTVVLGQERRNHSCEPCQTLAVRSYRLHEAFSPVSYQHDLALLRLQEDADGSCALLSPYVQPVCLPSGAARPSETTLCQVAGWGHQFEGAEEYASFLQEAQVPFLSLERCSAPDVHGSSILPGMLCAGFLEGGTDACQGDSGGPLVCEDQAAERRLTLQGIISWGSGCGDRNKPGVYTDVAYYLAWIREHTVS
purified human Factor XIIa, sequence (P00748 20-372 partner): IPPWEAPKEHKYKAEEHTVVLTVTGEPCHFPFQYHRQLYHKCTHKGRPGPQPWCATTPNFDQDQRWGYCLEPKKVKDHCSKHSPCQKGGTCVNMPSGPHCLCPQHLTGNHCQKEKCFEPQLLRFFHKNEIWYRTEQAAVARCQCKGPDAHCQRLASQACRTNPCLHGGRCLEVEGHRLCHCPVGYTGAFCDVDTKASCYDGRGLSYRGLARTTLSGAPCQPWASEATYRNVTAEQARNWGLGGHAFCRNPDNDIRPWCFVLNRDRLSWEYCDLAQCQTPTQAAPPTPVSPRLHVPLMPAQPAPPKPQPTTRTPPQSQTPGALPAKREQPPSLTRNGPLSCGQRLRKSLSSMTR

Row | IC50 | Compound
1 | 60.2 nM | Cc1csc(CNC(=O)[C@H]2CN(C(=O)[C@@H](CCCCN)NC3CCCCC3)CC[C@H]2NC(=O)N2CCC3(CC2)CC3)c1 [Compound 15, N-[(3S,4R)-1-(N~2~- cyclohexyl-D-lysyl)-3-{[(4-methylthiophen-2-yl)methyl]carbamoyl}pi-peridin-4-yl]-6-azaspiro[2.5]octane-6-carboxamide]
2 | 46.5 nM | O=C(NCc1cccs1)[C@H]1CN(C(=O)[C@@H](CCCCNCC(F)(F)F)NC2CCCCC2)CC[C@H]1NC(=O)N1CCC2(CC1)CC2 [Compound 22, N-{(3S,4R)-1-[N~2~- cyclohexyl-N~6~- (2,2,2-trifluoroethyl)-D-lysyl]-3-[(thiophen-2-ylmethyl)carbamoyl]pi-peridin-4-yl}-6-azaspiro[2.5]octane-6-carboxamide]
3 | 5.7 nM | CN(C)CCCC[C@@H](NC1CCCCC1)C(=O)N1CC[C@@H](NC(=O)N2CCC3(CC2)CC3)[C@@H](C(=O)NCc2cccs2)C1 [Compound 34, N-{(3S,4R)-1-(N~2~- cyclohexyl-N~6~,N~6~-dimethyl-D-lysyl)-3-[(thiophen-2-ylmethyl)carbamoyl]pi-peridin-4-yl}-6-azaspiro[2.5]octane-6-carboxamide]
4 | 73.3 nM | Cc1cnc(C(=O)NC2CCN(C(=O)[C@@H](CC3CCCCC3)NC3CCCCC3)CC2C(=O)NCc2ccc(CN)cc2)s1 (stereo partly drawn) [Compound 2, N-[4-(aminomethyl)benzyl]-1-(N,3-dicyclohexyl-D-alanyl)-4-{[(5-methyl-1,3-thiazol-2-yl)carbonyl]amino}pi-peridine-3-carboxamide]
5 | 109 nM | Cc1cnc(C(=O)N[C@@H]2CCN(C(=O)[C@@H](CCCCN)NC3CCCCC3)C[C@@H]2C(=O)NCc2cccs2)s1 [Compound 3, (3S,4R)-1-(N~2~- cyclohexyl-D-lysyl)-4-{[(5-methyl-1,3-thiazol-2-yl)carbonyl]amino}-N-(thiophen-2-ylmethyl)piperidine-3-carboxamide]
6 | 22.5 nM | CN(CCCC[C@@H](NC1CCCCC1)C(=O)N1CC[C@@H](NC(=O)N2CCC3(CC2)CC3)[C@@H](C(=O)NCc2cccs2)C1)S(C)(=O)=O [Compound 32, N-{(3S,4R)-1-[N~2~- cyclohexyl-N~6~- methyl-N~6~- (methylsulfonyl)-D-lysyl]-3-[(thiophen-2-ylmethyl)carbamoyl]pi-peridin-4-yl}-6-azaspiro[2.5]octane-6-carboxamide]
7 | 51.2 nM | CCS(=O)(=O)NCCCC[C@@H](NC1CCCCC1)C(=O)N1CC[C@@H](NC(=O)N2CCC3(CC2)CC3)[C@@H](C(=O)NCc2cccs2)C1 [Compound 21, N-{(3S,4R)-1-[N~2~- cyclohexyl-N~6~- (ethylsulfonyl)-D-lysyl]-3-[(thiophen-2-ylmethyl)carbamoyl]pi-peridin-4-yl}-6-azaspiro[2.5]octane-6-carboxamide]
8 | 29.2 nM | CN(C)CCCC[C@H](C(=O)N1CC[C@@H](NC(=O)c2cc(F)c(F)cc2F)[C@@H](C(=O)NCc2cccs2)C1)N(C)C1CCCCC1 [Compound 10, (3S,4R)-1-(N~2~- cyclohexyl-N~2~,N~6~,N~6~- trimethyl-D-lysyl)-N-(thiophen-2-ylmethyl)-4-{[(2,4,5-trifluoro-phenyl)carbonyl]amino}pi-peridine-3-carboxamide]
9 | 43.1 nM | O=C(NCc1cccs1)[C@H]1CN(C(=O)[C@@H](CCCCNS(=O)(=O)C2CC2)NC2CCCCC2)CC[C@H]1NC(=O)N1CCC2(CC1)CC2 [Compound 19, N-{(3S,4R)-1-[N~2~- cyclohexyl-N~6~- (cyclopropylsulfonyl)-D-lysyl]-3-[(thiophen-2-ylmethyl)carbamoyl]pi-peridin-4-yl}-6-azaspiro[2.5]octane-6-carboxamide]
10 | 29.2 nM | CS(=O)(=O)NCCCC[C@@H](NC1CCC2(CC1)CCN(Cc1ccccc1)C2)C(=O)N1CC[C@@H](NC(=O)N2CCC3(CC2)CC3)[C@@H](C(=O)NCc2cccs2)C1 (stereo partly drawn) [Compound 18, N-{(3S,4R)-1-[N~2~- (2-benzyl-2-azaspiro[4.5]dec-8-yl)-N~6~-(methylsulfonyl)-D-lysyl]-3-[(thiophen-2-ylmethyl)carbamoyl]pi-peridin-4-yl}-6-azaspiro[2.5]octane-6-carboxamide]
11 | 65.9 nM | CC(=O)OCCCC[C@@H](NC1CCCCC1)C(=O)N1CC[C@@H](NC(=O)N2CCC3(CC2)CC3)[C@@H](C(=O)NCc2cccs2)C1 [Compound 26, (5R)-6-{(3S,4R)-4-[(6-azaspiro[2.5]oct-6-ylcarbonyl)amino]-3-[(thiophen-2-ylmethy)carbamoyl]pi-peridin-1-yl}-5-(cyclohexylamino)-6-oxohexyl acetate]
12 | 19.5 nM | CS(=O)(=O)N(CCCC[C@@H](NC1CCCCC1)C(=O)N1CC[C@@H](NC(=O)N2CCC3(CC2)CC3)[C@@H](C(=O)NCc2cccs2)C1)CC(F)(F)F [Compound 35, N-{(3S,4R)-1-[N~2~- cyclohexyl-N~6~- (methylsulfonyl)-N~6~- (2,2,2-trifluoroethyl)-D-lysyl]-3-[(thiophen-2-ylmethyl)carbamoyl]pi-peridin-4-yl}-6-azaspiro[2.5]octane-6-carboxamide]
13 | 41.7 nM | NCc1ccc(CNC(=O)[C@H]2CN(C(=O)[C@@H](CC3CC3)NC3CCCCC3)CC[C@H]2NC(=O)N2CCC3(CC2)CC3)cc1 [Compound 12, N-[(3S,4R)-3-{[4-(amino-methyl)benzyl]carbamoyl}-1-(N-cyclohexyl-3-cyclopropyl-D-alanyl)piperidin-4-yl]-6-azaspiro[2.5]octane-6-carboxamide]
14 | 60.2 nM | CN(C)CCCC[C@H](C(=O)N1CC[C@@H](NC(=O)c2ccccc2)[C@@H](C(=O)NCc2cccs2)C1)N(C)C1CCCCC1 [Compound 8, (3S,4R)-1-(N~2~- cyclohexyl-N~2~,N~6~,N~6~- trimethyl-D-lysyl)-4-[(phenylcarbonyl)amino]-N-(thiophen-2-ylmethyl)piperidine-3-carboxamide]
15 | 102 nM | CN(C)CCCC[C@@H](NC1CCCCC1)C(=O)N1CC[C@@H](NC(=O)N2CCCc3ccccc32)[C@@H](C(=O)NCc2cccs2)C1 [Compound 28, N-{(3S,4R)-1-(N~2~- cyclohexyl-N~6~,N~6~-dimethyl-D-lysyl)-3-[(thiophen-2-ylmethyl)carbamoyl]pi-peridin-4-yl}-3,4-dihydroquinoline-1(2H)-carboxamide]
16 | 71.6 nM | CN(C)CCCC[C@H](C(=O)N1CC[C@@H](NC(=O)c2ccc(F)c(F)c2)[C@@H](C(=O)NCc2cccs2)C1)N(C)C1CCCCC1 [Compound 5, (3S,4R)-1-(N~2~- cyclohexyl-N~2~,N~6~,N~6~- trimethyl-D-lysyl)-4-{[(3,4-difluoro-phenyl)carbonyl]amino}-N-(thiophen-2-ylmethyl)piperidine-3-carboxamide]
17 | 108 nM | CC(=O)NCCCC[C@@H](NC1CCCCC1)C(=O)N1CC[C@@H](NC(=O)N2CCC3(CC2)CC3)[C@@H](C(=O)NCc2cccs2)C1 [Compound 24, N-{(3S,4R)-1-(N~6~- acetyl-N~2~- cyclohexyl-D-lysyl)-3-[(thiophen-2-ylmethyl)carbamoyl]pi-peridin-4-yl}-6-azaspiro[2.5]octane-6-carboxamide]
18 | 11.5 nM | CN(C)CCCC[C@H](C(=O)N1CC[C@@H](NC(=O)c2ccc(Cl)cc2)[C@@H](C(=O)NCc2cccs2)C1)N(C)C1CCCCC1 [Compound 9, (3S,4R)-4-{[(4-chloro-phenyl)carbonyl]amino}-1-(N~2~- cyclohexyl-N~2~,N~6~,N~6~- trimethyl-D-lysyl)-N-(thiophen-2-ylmethyl)piperidine-3-carboxamide]
19 | 49.2 nM | Cc1cnc(C(=O)N[C@@H]2CCN(C(=O)[C@@H](CC3CCCCC3)NC3CCCCC3)C[C@@H]2C(=O)NCc2ccc3[nH]cc(Cl)c3c2)s1 [Compound 1, (3S,4R)-N-[(3-chloro-1H-indol-5-yl)methyl]-1-(N,3-dicyclohexyl-D-alanyl)-4-{[(5-methyl-1,3-thiazol-2-yl)carbonyl]amino}pi-peridine-3-carboxamide]
20 | 15.1 nM | CN(C)CCCC[C@H](C(=O)N1CC[C@@H](NC(=O)N2CCC3(CC2)CC3)[C@@H](C(=O)NCc2cccs2)C1)N(C)C1CCCCC1 [Compound 33, N-{(3S,4R)-1-(N~2~- cyclohexyl-N~2~,N~6~,N~6~- trimethyl-D-lysyl)-3-[(thiophen-2-ylmethyl)carbamoyl]pi-peridin-4-yl}-6-azaspiro[2.5]octane-6-carboxamide]
21 | 18.7 nM | NCCCC[C@@H](NC1CCCCC1)C(=O)N1CC[C@@H](NC(=O)N2CCC3(CC2)CC3)[C@@H](C(=O)NCc2ccc(CN)cc2)C1 [Compound 14, N-[(3S,4R)-3-{[4-(amino-methyl)benzyl]carbamoyl}-1-(N~2~-cyclohexyl-D-lysyl)piperidin-4-yl]-6-azaspiro[2.5]octane-6-carboxamide]
22 | 47.2 nM | O=C(NCc1cccs1)[C@H]1CN(C(=O)[C@@H](CC2CCNCC2)NC2CCCCC2)CC[C@H]1NC(=O)N1CCC2(CC1)CC2 [Compound 20, N-{(3S,4R)-1-(N-cyclohexyl-3-piperidin-4-yl-D-alanyl)-3-[(thiophen-2-ylmethyl)carbamoyl]pi-peridin-4-yl}-6-azaspiro[2.5]octane-6-carboxamide]
